Data: PubChem BioAssay AID328 (DTP/NCI, 2004)
Several values for one entry are separate records, joined by “and”; a condition that tells them apart may be missing. Equal values may be shown once. Inconclusive results and toxic doses are left out. Positions of bridges follow the written chain, without caps; N, C: chain ends. Non-standard residues stand in square brackets, D forms with d. Residues, ends and D or L forms follow the SMILES beside them. NMeV = CN[CH](C(=O)O)C(C)C; Sar = CNCC(=O)O

Test system: BDF1 mice, P388 leukemia ip, median survival T/C
Test: NCI In Vivo Anticancer Drug Screen. Data for tumor model P388 Leukemia (intraperitoneal) in B6D2F1 (BDF1) mice
Conditions: endpoint: median survival time, higher = longer survival
How it was run: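 Compound-treated tumour-bearing mice were compared with vehicle-treated controls. Survival was recorded, and the value is the treated-group measurement divided by the control-group measurement (T/C).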

[1] = dose: 25.0 mg/kg/injection, schedule: Q04DX003 (ip), vehicle: saline with Tween-80
[2] = dose: 100.0 mg/kg/injection, schedule: Q04DX003 (ip), vehicle: saline
[3] = dose: 200.0 mg/kg/injection, schedule: Q04DX003 (ip), vehicle: saline
[4] = dose: 100.0 mg/kg/injection, schedule: Q04DX003 (ip), vehicle: saline with Tween-80
[5] = dose: 200.0 mg/kg/injection, schedule: Q04DX003 (ip), vehicle: saline with Tween-80
[6] = dose: 400.0 mg/kg/injection, schedule: Q04DX003 (ip), vehicle: saline with Tween-80
[7] = dose: 100.0 mg/kg/injection, schedule: Q01DX009 (ip), vehicle: saline with Tween-80
[8] = dose: 25.0 mg/kg/injection, schedule: Q04DX003 (ip), vehicle: saline
[9] = dose: 12.5 mg/kg/injection, schedule: Q01DX009 (ip), vehicle: saline with Tween-80
[10] = dose: 50.0 mg/kg/injection, schedule: Q01DX009 (ip), vehicle: saline with Tween-80
[11] = dose: 200.0 mg/kg/injection, schedule: Q01DX009 (ip), vehicle: saline with Tween-80

In the case of `C[CH2][Sn]([CH2]C)([CH2]C)[NH]S(=O)(=O)c1ccc(C)cc1`, the T/C (dose: 0.39 mg/kg/injection, schedule: Q01DX009 (ip), vehicle: Klucel (hydroxypropylcellulose) (HPC)) is reported as 100 % of control, the T/C (dose: 0.78 mg/kg/injection, schedule: Q01DX009 (ip), vehicle: Klucel (hydroxypropylcellulose) (HPC)) is reported as 115 % of control and the T/C (dose: 3.12 mg/kg/injection, schedule: Q01DX001 (ip), vehicle: Klucel (hydroxypropylcellulose) (HPC)) is reported as 100 % of control. For the same compound, the T/C (dose: 6.25 mg/kg/injection, schedule: Q01DX001 (ip), vehicle: Klucel (hydroxypropylcellulose) (HPC)) was 90 % of control, the T/C (dose: 12.5 mg/kg/injection, schedule: Q01DX001 (ip), vehicle: Klucel (hydroxypropylcellulose) (HPC)) was 90 % of control and the T/C (dose: 18.0 mg/kg/injection, schedule: Q01DX001 (ip), vehicle: Klucel (hydroxypropylcellulose) (HPC)) was 104 % of control.

`c1ccc(CC(Cc2ccccc2)NC2=NCCO2)cc1` was tested, and the T/C (dose: 6.25 mg/kg/injection, schedule: Q04DX003 (ip), vehicle: saline with Tween-80) was 100 % of control, the T/C (dose: 12.5 mg/kg/injection, schedule: Q04DX003 (ip), vehicle: saline with Tween-80) was 100 % of control and the T/C [1] was 100 % of control.

In the case of `BrCCN(CCBr)c1cccc(/C=C/c2ccccc2)c1`, the T/C (dose: 50.0 mg/kg/injection, schedule: Q01DX009 (ip), vehicle: Klucel (hydroxypropylcellulose) (HPC)) is reported as 99 % of control, the T/C (dose: 100.0 mg/kg/injection, schedule: Q01DX009 (ip), vehicle: Klucel (hydroxypropylcellulose) (HPC)) is reported as 101 % of control and the T/C (dose: 200.0 mg/kg/injection, schedule: Q01DX009 (ip), vehicle: Klucel (hydroxypropylcellulose) (HPC)) is reported as 114 % of control.

For `NCC(=O)O`, the T/C (dose: 100.0 mg/kg/injection, schedule: Q01DX009 (ip), vehicle: saline) was 95 % of control, the T/C [2] was 100 % of control and the T/C (dose: 200.0 mg/kg/injection, schedule: Q01DX009 (ip), vehicle: saline) was 104 % of control. The T/C [3] was 95 % of control, the T/C (dose: 400.0 mg/kg/injection, schedule: Q01DX009 (ip), vehicle: saline) was 95 % of control and the T/C (dose: 400.0 mg/kg/injection, schedule: Q04DX003 (ip), vehicle: saline) was 95 % of control.

For `Cc1ccc(NC(=O)c2ccccc2Cl)cc1C`, the T/C [4] was 104 % of control, the T/C [5] was 113 % of control and the T/C [6] was 109 % of control.

In the case of `C[N+](C)(Cn1nc(Cl)c2ccc([N+](=O)[O-])cc21)Cn1nc(Cl)c2ccc([N+](=O)[O-])cc21`, the T/C [4] is reported as 100 % of control and the T/C [5] is reported as 108 % of control.

In the case of `CCCCOB(/C=C/Sc1ccccc1)OCCCC`, the T/C [7] is reported as 120 % of control, the T/C [4] is reported as 115 % of control and the T/C (dose: 132.0 mg/kg/injection, schedule: Q01DX009 (ip), vehicle: saline with Tween-80) is reported as 118 % of control. For the same compound, the T/C [5] was 120 % of control, the T/C (dose: 300.0 mg/kg/injection, schedule: Q01DX009 (ip), vehicle: saline with Tween-80) was 122 % of control and the T/C [6] was 110 % of control.

With `Cc1ncc([N+](=O)[O-])n1CCSSCCn1c([N+](=O)[O-])cnc1C` the T/C [4] was 118 % of control, the T/C [5] was 118 % of control and the T/C [6] was 115 % of control.

With `CCC/C(=N\Nc1ccc([N+](=O)[O-])cc1[N+](=O)[O-])c1ccccc1` the T/C [1] was 90 % of control, the T/C (dose: 50.0 mg/kg/injection, schedule: Q04DX003 (ip), vehicle: saline with Tween-80) was 100 % of control and the T/C [4] was 109 % of control.

In the case of `CC1CN1P1(N2CC2C)=NP(N2CC2C)(N2CC2C)=NP(N2CC2C)(N2CC2C)=N1` (stereo not given), the T/C (dose: 4.4 mg/kg/injection, schedule: Q01DX009 (ip), vehicle: saline) is reported as 122 % of control, the T/C (dose: 6.6 mg/kg/injection, schedule: Q01DX009 (ip), vehicle: saline) is reported as 124 % of control and the T/C (dose: 15.0 mg/kg/injection, schedule: Q01DX009 (ip), vehicle: saline) is reported as 161 % of control. The T/C (dose: 16.5 mg/kg/injection, schedule: Q01DX009 (ip), vehicle: saline) was 155 % of control, the T/C (dose: 25.0 mg/kg/injection, schedule: Q01DX009 (ip), vehicle: saline) was 160 % of control and 164 % of control and the T/C [8] was 114 % of control. The T/C (dose: 37.5 mg/kg/injection, schedule: Q01DX009 (ip), vehicle: saline) was 169 % of control, the T/C (dose: 50.0 mg/kg/injection, schedule: Q01DX009 (ip), vehicle: saline) was 203 % of control and the T/C [2] was 166 % of control and 214 % of control. For the same compound, the T/C [3] was 102 % of control.

`c1ccc(C2=C([P+](c3ccccc3)(c3ccccc3)c3ccccc3)CCN2)cc1` was tested, and the T/C [9] was 100 % of control.

With `C/C(C/C(C)=N\NC(=O)CN)=N/NC(=O)CN` the T/C (dose: 33.75 mg/kg/injection, schedule: Q01DX009 (ip), vehicle: saline with Tween-80) was 104 % of control, the T/C (dose: 67.5 mg/kg/injection, schedule: Q01DX009 (ip), vehicle: saline with Tween-80) was 100 % of control and the T/C (dose: 135.0 mg/kg/injection, schedule: Q01DX009 (ip), vehicle: saline with Tween-80) was 106 % of control.

For `CC(=O)Nc1ccc(S(=O)(=O)N2CC2)cc1`, the T/C (dose: 25.0 mg/kg/injection, schedule: Q01DX005 (ip), vehicle: saline) was 98 % of control, the T/C (dose: 50.0 mg/kg/injection, schedule: Q01DX005 (ip), vehicle: saline) was 111 % of control and the T/C (dose: 100.0 mg/kg/injection, schedule: Q01DX005 (ip), vehicle: saline) was 98 % of control. The T/C (dose: 200.0 mg/kg/injection, schedule: Q01DX005 (ip), vehicle: saline) was 111 % of control.

For `N#Cc1ccc(C(=O)/C=C/c2ccc(OCc3ccccc3)cc2)cc1`, the T/C [10] was 91 % of control, the T/C [7] was 89 % of control and the T/C [11] was 91 % of control.

For `N=C([Se])c1ncn(C2OC(CO)C(O)C2O)c1N` (stereo not given), the T/C (dose: 6.25 mg/kg/injection, schedule: Q04DX003 (ip), vehicle: saline) was 106 % of control, the T/C (dose: 12.5 mg/kg/injection, schedule: Q04DX003 (ip), vehicle: saline) was 108 % of control and the T/C [8] was 111 % of control. The T/C (dose: 50.0 mg/kg/injection, schedule: Q04DX003 (ip), vehicle: saline) was 106 % of control.

With `Cc1cc(Br)c2nsnc2c1[N+](=O)[O-]` the T/C (dose: 50.0 mg/kg/injection, schedule: Q01DX005 (ip), vehicle: saline with Tween-80) was 118 % of control and the T/C (dose: 400.0 mg/kg/injection, schedule: Q01DX005 (ip), vehicle: saline with Tween-80) was 118 % of control.

`CC(C)C1NC(=O)C(N)C(C)OC(=O)C(C(C)C)N(C)C(=O)CN(C)C(=O)C2CCCN2C1=O` (stereo not given) (tested in a mixture with another compound) (H-TVP[Sar][NMeV]; ester 1-C; configuration not given here) was tested, and the T/C (dose: 0.05 mg/kg/injection, schedule: Q01DX009 (ip), vehicle: saline + alcohol) was 201 % of control, the T/C (dose: 0.1 mg/kg/injection, schedule: Q01DX009 (ip), vehicle: saline + alcohol) was 260 % of control and the T/C (dose: 0.2 mg/kg/injection, schedule: Q01DX009 (ip), vehicle: saline + alcohol) was 531 % of control. For the same compound, the T/C (dose: 0.3 mg/kg/injection, schedule: Q04DX003 (ip), vehicle: saline + alcohol) was 239 % of control, the T/C (dose: 0.4 mg/kg/injection, schedule: Q01DX009 (ip), vehicle: saline + alcohol) was 96 % of control and the T/C (dose: 0.6 mg/kg/injection, schedule: Q04DX003 (ip), vehicle: saline + alcohol) was 281 % of control and 187 % of control. For the same compound, the T/C (dose: 1.2 mg/kg/injection, schedule: Q04DX003 (ip), vehicle: saline + alcohol) was 107 % of control.

In the case of `CCOC(OC(C)=O)OC(C)=O`, the T/C (dose: 50.0 mg/kg/injection, schedule: Q01DX001 (ip), vehicle: saline) is reported as 100 % of control, the T/C (dose: 100.0 mg/kg/injection, schedule: Q01DX001 (ip), vehicle: saline) is reported as 115 % of control and the T/C (dose: 200.0 mg/kg/injection, schedule: Q01DX001 (ip), vehicle: saline) is reported as 110 % of control.

For `CSC(=S)NNC(=O)C1CCCCC1`, the T/C (dose: 25.0 mg/kg/injection, schedule: Q01DX001 (ip), vehicle: saline sonified) was 100 % of control, the T/C (dose: 50.0 mg/kg/injection, schedule: Q01DX001 (ip), vehicle: saline sonified) was 104 % of control and the T/C (dose: 100.0 mg/kg/injection, schedule: Q01DX001 (ip), vehicle: saline sonified) was 100 % of control.

With `CC1CCCCC1(O)CSc1ccccc1` (stereo not given) the T/C [9] was 100 % of control and 106 % of control, the T/C (dose: 25.0 mg/kg/injection, schedule: Q01DX009 (ip), vehicle: saline with Tween-80) was 102 % of control and 116 % of control and the T/C [10] was 103 % of control and 113 % of control. For the same compound, the T/C [7] was 116 % of control (2×) and 124 % of control and the T/C [11] was 101 % of control.
